Test results: patent publication US6340654B1, “Freshness-retaining agent and method for agricultural/horticultural products” (priority 1999, dated 2002)

Test system: fresh pieces of apple (variety: Mutsu)
Test: Ethylene concentration lowering effect for apple (ethylene in hermetically closed jar, tubular gas detector)
Conditions: 23° C.
[1] = Table 9, single substances 3 g, mixtures 1.5 g + 1.5 g, 20 g apple
[2] = Table 2, vs. mixing ratio, 3 g agent per 20 g apple
[3] = Table 10, vs. mixing ratio, 3 g agent per 20 g apple
[4] = Table 1, 20 g apple pieces in closed 150-mL jar, 3 g agent

Description: Mouths of those jars were then hermetically closed with “[sequence]” (trademark; product of American National Can Company). Those jars were left over at 23° C., and on DAY 1, DAY 3 and DAY 6, the concentrations of ethylene in the respective jars were measured by a tubular gas detector (manufactured by Gastec, Inc.). The concentration of ethylene in a jar with “KIMWIPE” alone hermetically placed therein was also measured as a control.
Mouths of those jars were then hermetically closed with “[sequence]”. Those jars were left over at 23° C., and on DAY 1, DAY 3 and DAY 6, the concentrations of ethylene in the respective jars were measured by the tubular gas detector (manufactured by Gastec, Inc.). The concentration of ethylene in a jar with “KIMWIPE” alone hermetically placed therein was also measured as a control.
In 150-mL jars with 20 g per jar of fresh pieces of apple (variety: Mutsu) placed therein, portions (0.5 to 3 g) of a freshness-retaining agent [cinnamic acid:sodium hydrogen-carbonate=1:2 (by weight)] according to the present invention—all of which were individually wrapped with “KIMWIPE” (trademark for laboratory paper produced by Jujo-Kimberly Co., Ltd.)—were placed, respectively. Mouths of those jars were then hermetically closed with “[sequence]”. Those jars were left over at 23° C., and on DAY 1 and DAY 3, the concentrations of ethylene in the respective jars were measured by the tubular gas detector (manufactured by Gastec, Inc.). The concentration of ethylene in a jar with “KIMWIPE” alone hermetically placed therein was also measured as a control.
In 150-mL jars with 20 g per jar of fresh pieces of apple (variety: Mutsu) placed therein, three freshness-retaining agents according to the present invention [1:3 (by molar ratio) mixtures of cinnamic acid and hydrogencarbonates]—all of which were individually wrapped with “KIMWIPE” (trademark for laboratory paper produced by Jujo-Kimberly Co., Ltd.)—were placed, respectively. Mouths of those jars were then hermetically closed with “[sequence]”. Those jars were left over at 23° C., and on DAY 1 and DAY 3, the concentrations of ethylene in the respective jars were measured by the tubular gas detector (manufactured by Gastec, Inc.). The concentration of ethylene in a jar with “KIMWIPE” alone hermetically placed therein was also measured as a control.
Mouths of those jars were then hermetically closed with “[sequence]”.

O=C([O-])CC(O)(CC(=O)[O-])C(=O)O.[Na+].[Na+] [Disodium citrate, disodium citrate]
Concentration of ethylene DAY 1 [1]: 250 ppm
Concentration of ethylene DAY 3 [1]: 150 ppm

O=C([O-])O.[Na+] [Sodium hydrogencarbonate, sodium hydrogencarbonate]
Concentration of ethylene DAY 1 [2]: 50 ppm
Concentration of ethylene DAY 3 [2]: 75 ppm
Concentration of ethylene DAY 6 [2]: 125 ppm
Concentration of ethylene DAY 1 [1]: 275 ppm
Concentration of ethylene DAY 3 [1]: 150 ppm
Concentration of ethylene DAY 1 [3]: 275 ppm
Concentration of ethylene DAY 3 [3]: 150 ppm
Concentration of ethylene DAY 6 [3]: 150 ppm

O=C([O-])CC(O)(CC(=O)O)C(=O)O.[Na+] [Monosodium citrate, monosodium citrate]
Concentration of ethylene DAY 1 [1]: 250 ppm
Concentration of ethylene DAY 3 [1]: 125 ppm

O=C(O)C=Cc1ccccc1 [Cinnamic acid, cinnamic acid]
Concentration of ethylene DAY 1 [4]: 100 ppm
Concentration of ethylene DAY 2 (Table 1, DAY 2, 20 g apple pieces in closed 150-mL jar, 3 g agent): 100 ppm
Concentration of ethylene DAY 6 [4]: 100 ppm
Concentration of ethylene DAY 1 [2]: 38 ppm
Concentration of ethylene DAY 3 [2]: 50 ppm
Concentration of ethylene DAY 6 [2]: 50 ppm

O=C(O)CC(O)(CC(=O)O)C(=O)O [Citric acid, citric acid]
Concentration of ethylene DAY 1 [1]: 275 ppm
Concentration of ethylene DAY 3 [1]: 125 ppm
